Reference: publication PMC3320733 (International Journal of Antimicrobial Agents, 2012)
Where no end group is shown, it is not given here.

Columns and labels:
Assay type in all cases: cell-based
[1] = test system: Pseudomonas aeruginosa PAO1
Bacillus subtilis 168 = test system: Bacillus subtilis 168
human red blood cells = experiment: Haemolytic effects on human red blood cells; settings: 1 h

FFGKVLKLIRKIF-NH2 [DASamP1]
MIC Pseudomonas aeruginosa [1]: >100 µM
MIC Bacillus subtilis (Bacillus subtilis 168): >100 µM
HL50 (concentration at which 50% of red blood cells were lysed) (human red blood cells): 25 µM

GLLGLLGSVVSHVVPAIVGHF-NH2 [Maculatin 1.3] [listing 1 of 2 here]
MIC Pseudomonas aeruginosa [1]: >100 µM
MIC Bacillus subtilis (Bacillus subtilis 168): 25 µM

FFHHIFRGIVHVGKTIHRLVTG [Piscidin 1] [listing 1 of 2 here]
MIC Pseudomonas aeruginosa [1]: 50 µM
MIC Bacillus subtilis (Bacillus subtilis 168): 12.5 µM

FFHHIFRGIVHVGKTIHRLVTG [Piscidin 1] [listing 2 of 2 here]
HL50 (concentration at which 50% of red blood cells were lysed) (human red blood cells): 20 µM

GLLGLLGSVVSHVVPAIVGHF-NH2 [Maculatin 1.3] [listing 2 of 2 here]
HL50 (concentration at which 50% of red blood cells were lysed) (human red blood cells): 25 µM

GFKDLLKGAAKALVKTVLF-NH2 [Ascaphin-8]
MIC Pseudomonas aeruginosa [1]: 12.5 µM
MIC Bacillus subtilis (Bacillus subtilis 168): 6.25 µM
HL50 (concentration at which 50% of red blood cells were lysed) (human red blood cells): 45 µM
